Results from patent US20140345648A1, “Oral Healthcare, Products and Methods Therefor” (OZOSPA HOLDINGS LIMITED, priority 2011, published 2014).

Key:
[1] = test system: Porphyromonas gingivalis ATCC 3327; test: Challenge test of powder product, liquid product, xylitol and bicarbonate of soda (based on B.S.3286:1960), Example 4; format: cell-based; settings: for Porphyromonas gingivalis ATCC 3327 Population Levels T = 0 / Porphyromonas gingivalis ATCC 3327 Population Levels T = 2 / Porphyromonas gingivalis ATCC 3327 Population Levels T = 1 / Porphyromonas gingivalis ATCC 3327 Population Levels T = 4 / Porphyromonas gingivalis ATCC 3327 Population Levels T = 3 / Porphyromonas gingivalis ATCC 3327 Population Levels T = 6 / Porphyromonas gingivalis ATCC 3327 Population Levels T = 5 / Porphyromonas gingivalis ATCC 3327 Population Levels T = 8 / Porphyromonas gingivalis ATCC 3327 Population Levels T = 7: Table 7; for Porphyromonas gingivalis ATCC 3327 Population Levels T = 0: Day 0, powders 1:5, liquid neat; for Porphyromonas gingivalis ATCC 3327 Population Levels T = 2: Day 1, 2 hrs after 10 mls of fresh sol'n added; for Porphyromonas gingivalis ATCC 3327 Population Levels T = 1: Day 1, prior to 10 mls of fresh sol'n added; for Porphyromonas gingivalis ATCC 3327 Population Levels T = 4: Day 2, 2 hrs after 10 mls of fresh sol'n added; for Porphyromonas gingivalis ATCC 3327 Population Levels T = 3: Day 2, prior to 10 mls of fresh sol'n added; for Porphyromonas gingivalis ATCC 3327 Population Levels T = 6: Day 3, 2 hrs after 10 mls of fresh sol'n added; for Porphyromonas gingivalis ATCC 3327 Population Levels T = 5: Day 3, prior to 10 mls of fresh sol'n added; for Porphyromonas gingivalis ATCC 3327 Population Levels T = 8: Day 4, 2 hrs after 10 mls of fresh sol'n added; for Porphyromonas gingivalis ATCC 3327 Population Levels T = 7: Day 4, prior to 10 mls of fresh sol'n added; for effect against the Porphyromonas gingivalis population (in words): controlled laboratory test
Method: (§1) The powder product and the liquid product were challenge tested against the organisms Streptococcus mutans and Porphyromonas gingivalis. […] The challenge method used was based on B.S.3286: 1960 “Method for Laboratory Evaluation of Disinfectant Activity of Quaternary Ammonium Compounds by Suspension Test Procedure”. This standard describes a test procedure for the laboratory evaluation of the activity of disinfectants, in which a suspension of viable microorganisms is added to solutions containing a pre-determined concentration of the disinfectant and the numbers of organisms surviving after a period of time is determined. A 1:5 solution of the powders with sterile deionised water was used for the challenge testing. The liquid product was used neat. The following organisms were used for the challenge testing: […] A modification will be made to the method by the addition of 10 ml of each solution each day, for 4 days. (The blank solution would have 10 ml of Neutralising buffer added.) […]

[2] = test system: Streptococcus mutans ATCC 25175; test: as above; format: cell-based; settings: for Streptococcus mutans ATCC 25175 Population Levels T = 0: Day 0, powders 1:5, liquid neat; for Streptococcus mutans ATCC 25175 Population Levels T = 2: Day 1, 2 hrs after 10 mls of fresh sol'n added; for Streptococcus mutans ATCC 25175 Population Levels T = 1: Day 1, prior to 10 mls of fresh sol'n added; for Streptococcus mutans ATCC 25175 Population Levels T = 4: Day 2, 2 hrs after 10 mls of fresh sol'n added; for Streptococcus mutans ATCC 25175 Population Levels T = 3: Day 2, prior to 10 mls of fresh sol'n added; for Streptococcus mutans ATCC 25175 Population Levels T = 6: Day 3, 2 hrs after 10 mls of fresh sol'n added; for Streptococcus mutans ATCC 25175 Population Levels T = 5: Day 3, prior to 10 mls of fresh sol'n added; for Streptococcus mutans ATCC 25175 Population Levels T = 8: Day 4, 2 hrs after 10 mls of fresh sol'n added; for Streptococcus mutans ATCC 25175 Population Levels T = 7: Day 4, prior to 10 mls of fresh sol'n added
Method: as §1

| Structure (SMILES) | Porphyromonas gingivalis ATCC 3327 Population Levels T = 0 [1] | Porphyromonas gingivalis ATCC 3327 Population Levels T = 2 [1] | Porphyromonas gingivalis ATCC 3327 Population Levels T = 1 [1] | Porphyromonas gingivalis ATCC 3327 Population Levels T = 4 [1] | Porphyromonas gingivalis ATCC 3327 Population Levels T = 3 [1] | Porphyromonas gingivalis ATCC 3327 Population Levels T = 6 [1] | Porphyromonas gingivalis ATCC 3327 Population Levels T = 5 [1] | Porphyromonas gingivalis ATCC 3327 Population Levels T = 8 [1] | Porphyromonas gingivalis ATCC 3327 Population Levels T = 7 [1] | effect against the Porphyromonas gingivalis population (in words) [1] | Streptococcus mutans ATCC 25175 Population Levels T = 0 [2] | Streptococcus mutans ATCC 25175 Population Levels T = 2 [2] | Streptococcus mutans ATCC 25175 Population Levels T = 1 [2] | Streptococcus mutans ATCC 25175 Population Levels T = 4 [2] | Streptococcus mutans ATCC 25175 Population Levels T = 3 [2] | Streptococcus mutans ATCC 25175 Population Levels T = 6 [2] | Streptococcus mutans ATCC 25175 Population Levels T = 5 [2] | Streptococcus mutans ATCC 25175 Population Levels T = 8 [2] [cfu/ml] | Streptococcus mutans ATCC 25175 Population Levels T = 7 [2] | reduction in the Streptococcus mutans population ([2]; over the 5 days, Example 4) [log] |
| --- | --- | --- | --- | --- | --- | --- | --- | --- | --- | --- | --- | --- | --- | --- | --- | --- | --- | --- | --- | --- |
| O=C([O-])O.[Na+] [Bicarbonate of Soda solution, Sodium Bicarbonate] | 2.5 × 10^6 cfu/ml | 3.1 × 10^5 cfu/ml | 5.9 × 10^5 cfu/ml | 1.1 × 10^5 cfu/ml | 1.2 × 10^5 cfu/ml | 3.3 × 10^4 cfu/ml | 2.4 × 10^4 cfu/ml | 2.8 × 10^3 cfu/ml | 4.8 × 10^3 cfu/ml | did not appear to be effective on its own | 1.5 × 10^7 cfu/ml | 3.4 × 10^5 cfu/ml | 1.8 × 10^6 cfu/ml | 3.2 × 10^4 cfu/ml | 6.7 × 10^4 cfu/ml | 2.8 × 10^3 cfu/ml | 7.7 × 10^3 cfu/ml | 10 | 1.2 × 10^2 cfu/ml | 6 |
| OC[C@@H](O)[C@H](O)[C@@H](O)CO [Xylitol solution, Xylitol] | 2.6 × 10^6 cfu/ml | 1.9 × 10^3 cfu/ml | 9.1 × 10^3 cfu/ml | <10 cfu/ml | 20 cfu/ml | <10 cfu/ml | <10 cfu/ml | <10 cfu/ml | <10 cfu/ml | reasonably effective | 1.5 × 10^7 cfu/ml | 5.2 × 10^5 cfu/ml | 7.8 × 10^6 cfu/ml | 2.6 × 10^4 cfu/ml | 1.0 × 10^5 cfu/ml | 1.6 × 10^4 cfu/ml | 1.0 × 10^4 cfu/ml | <10 | 30 cfu/ml | – |
